The source of these data is patent US20060247223A1, “Non-imidazole alkylamines as histamine H3- receptor ligands and their therapeutic applications” (priority 1998, published 2006).

Where a name gives a salt, the structure may show the parent alone.

Compound `CCN(CC)CCCCOc1ccc(C#N)cc1` (as salt: oxalate) [Example 56, N-[4-(4-cyanophenoxy)-butyl]-diethylamine] displayed a melting point of 143 to 145 °C.

`N#Cc1ccc(OCCCN2CCCC2)cc1` (as salt: oxalate) [Example 58, 1-[3-(4-cyanophenoxy)-propyl]-pyrrolidine]: the melting point lay within 163 to 165 °C.

In turn, `N#Cc1ccc(OCCCN2CCCCC2)cc1` (as salt: oxalate) [Example 59, 1-[3-(4-cyanophenoxy)propyl]piperidine] came in with a melting point of 151 to 153 °C.

Compound `N#Cc1ccc(OCCCN2CCCCCC2)cc1` (as salt: oxalate) [Example 60, N-[3-(4-cyanophenoxy)-propyl]-hexamethyleneimine] had a melting point of 124 to 125 °C.

Take `CCN(CC)CCCCCCOc1ccc(C#N)cc1` (as salt: oxalate) [Example 61, N-[6-(4-cyanophenoxy)-hexyl]-diethylamine]: the melting point was 110 to 112 °C.

In turn, `CCCN(CCC)CCCOc1ccc(C#N)cc1` (as salt: oxalate) [Example 62, N-[3-(4-cyanophenoxy)-propyl]-dipropylamine] registered a melting point of 127 to 128 °C.

`CCN(CC)CCCOc1ccc(/C(C)=N/O)cc1` (as salt: oxalate) [Example 64, 4-(3-diethylaminopropoxy)-acetophenone-oxime] gave a melting point of 99 to 100 °C.

On to `CC(=O)c1ccc(OCCCN2CCCCC2)cc1` (as salt: oxalate) [Example 65, 1-[3-(4-acetylphenoxy)-propyl]-piperidine], for which the melting point fell in the range of 159 to 160 °C.

As to `CC(=O)c1ccc(OCCCN2CCCC(C)C2)cc1` (centres unmarked) (as salt: oxalate) [Example 66, 1-[3-(4-acetylphenoxy)-propyl]-3-methyl-piperidine], the melting point was 143 to 144 °C.

`CC(=O)c1ccc(OCCCN2CCC(C)CC2)cc1` (as salt: oxalate) [Example 68, 1-[3-(4-acetylphenoxy)-propyl]-4-methyl-piperidine] yielded a melting point of 160 to 161 °C.

As to `CC(=O)c1ccc(OCCCN2C[C@H](C)C[C@H](C)C2)cc1` (as salt: oxalate) [Example 70, 1-[3-(4-acetylphenoxy)-propyl]-3,5-cis-dimethyl-piperidine], the melting point was 174 to 175 °C.

`O=Cc1ccc(OCCCN2CCCCC2)cc1` (as salt: oxalate) [Example 71, 1-[3-(4-formylphenoxy)-propyl]-piperidine]: the melting point lay in the range of 152 to 153 °C.

`CC(C)C(=O)c1ccc(OCCCN2CCCCC2)cc1` (as salt: oxalate) [Example 72, 1-[3-(4-isobutyrylphenoxy)-propyl]-piperidine] displayed a melting point of 121 to 122 °C.

`CCCC(=O)c1ccc(OCCCN2CCCCC2)cc1` (as salt: oxalate) [Example 74, 1-[3-(4-buyrylphenoxy)propyl]piperidine]: the melting point was in the range of 138 to 139 °C.

In turn, `CC(=O)c1ccc(OCCCN2CC=CCC2)cc1` (as salt: oxalate) [Example 75, 1-[3-(4-acetylphenoxy)-propyl]-1,2,3,6-tetrahydropyridine] had a melting point of 143 to 144 °C.

Compound `CC(=O)c1ccc(OC[C@H](C)CN2CCCCC2)cc1` (as salt: oxalate) [Example 77, 1-[3-(4-acetylphenoxy)-2-R-methylpropyl]piperidine] yielded a melting point of 149 to 151 °C.

On to `CC(=O)c1ccc(OCC(C)CN2CCCCC2)cc1` (centres unmarked) (as salt: oxalate) [Example 80, 1-[3-(4-acetylphenoxy)-2-S-methylpropyl]piperidine], for which the melting point was 148 to 150 °C.

As for `CC1CCCN(CCCOc2ccc([N+](=O)[O-])cc2)C1` (centres unmarked) (as salt: oxalate) [Example 83, 1-[3-(4-nitrophenoxy)propyl]-3-methylpiperidine], the melting point was 172 to 174 °C.

Compound `CC1CCCCN1CCCOc1ccc([N+](=O)[O-])cc1` (centres unmarked) (as salt: oxalate) [Example 85, 1-[3-(4-nitrophenoxy)propyl]-2-methylpiperidine] showed a melting point of 151 to 153 °C.

In the case of `CC1CCN(CCCOc2ccc([N+](=O)[O-])cc2)CC1` (as salt: oxalate) [Example 86, 1-[3-(4-nitrophenoxy)propyl]4-methylpiperidine], the melting point is 119 to 121 °C.

`CCC(=O)c1ccc(OCCCN2CCCC(C)C2)cc1` (centres unmarked) (as salt: oxalate) [Example 88, 1-[3-(4-propionylphenoxy)propyl]-3-methylpiperidine] registered a melting point of 135 to 136 °C.

Turning to `O=C(c1ccc(OCCCN2CCCCC2)cc1)C1CCC1` (as salt: oxalate) [Example 89, 1-[3-(4-cyclobutylcarbonylphenoxy)propyl]piperidine], the melting point lay within 80 to 82 °C.

With `O=C(c1ccc(OCCCN2CCCCC2)cc1)C1CCCC1` (as salt: oxalate) [Example 90, 1-[3-(4-cyclopentylcarbonylphenoxy)propyl]piperidine], the melting point lay within 143 to 145 °C.

Consider `C[C@@H]1C[C@H](C)CN(CCCOc2ccc(C#N)cc2)C1` (as salt: oxalate) [Example 93, 1-[3-(4-cyanophenoxy)propyl]-cis-3,5-dimethylpiperidine], for which the melting point fell in the range of 161 to 163 °C.

On to `CCC(=O)c1ccc(OCCCN2CCC(C)CC2)cc1` (as salt: oxalate) [Example 94, 1-[3-(4-propionylphenoxy)propyl]-4-methylpiperidine], for which the melting point was 163 to 165 °C.

Take `CCC(=O)c1ccc(OCCCN2CCCCC2C)cc1` (centres unmarked) (as salt: oxalate) [Example 95, 1-[3-(4-propionylphenoxy)propyl]-2-methylpiperidine]: the melting point lay within 92 to 94 °C.

`CCC(O)c1ccc(OCCCN2CCC(C)CC2)cc1` (centres unmarked) (as salt: oxalate) [Example 97, 1-{3-[4-(1-hydroxypropyl)phenoxy]propyl}-4-methylpiperidine]: the melting point was in the range of 182 to 183 °C.

Regarding `CCC(=NOC)c1ccc(OCCCN2CCC(C)CC2)cc1` (as salt: oxalate) [Example 99, 1-[3-(4-propionylphenoxy)propyl]-4-methylpiperidine methoxime], the melting point lay in the range of 179 to 181 °C.

Consider `C[C@@H]1C[C@H](C)CN(CCCOc2ccc(C(=O)C3CC3)cc2)C1` (as salt: oxalate) [Example 102, 1-[3-(4-cyclopropylcarbonylphenoxy)propyl]-cis-3,5-dimethylpiperidine], for which the melting point fell in the range of 130 to 132 °C.

Regarding `COC(=O)c1ccc(OCCCN2CCCCC2)cc1` (as salt: oxalate) [Example 103, 1-[3-(4-carbomethoxyphenoxy)propyl]piperidine], the melting point fell in the range of 156 to 158 °C.

In turn, `CCC(=NO)c1ccc(OCCCN2CCC(C)CC2)cc1` (as salt: oxalate) [Example 107] registered a melting point of 157 to 160 °C.

As for `Brc1ccc(OCCCN2CCCCC2)cc1` (as salt: oxalate) [Example 108, 1-[3-(4-bromophenoxy)propyl]piperidine], the melting point lay within 175 to 177 °C.

`O=[N+]([O-])c1ccc(OCCCN2CCCCC2)cc1` (as salt: oxalate) [Example 109, 1-[3-(4-nitrophenoxy)propyl]piperidine] yielded a melting point of 148 to 151 °C.

In turn, `CN(C)S(=O)(=O)c1ccc(OCCCN2CCCCC2)cc1` (as salt: oxalate) [Example 110, 1-[3-(4-N,N-dimethylsulfonamidophenoxy)propyl]piperidine] gave a melting point of 149 to 153 °C.

For the compound `CC(C)c1ccc(OCCCN2CCCCC2)cc1` (as salt: oxalate) [Example 111], the melting point fell in the range of 131 to 134 °C.

In turn, `CCC(C)c1ccc(OCCCN2CCCCC2)cc1` (centres unmarked) (as salt: oxalate) [Example 112, 1-[3-(4-sec-butylphenoxy)propyl]pipenidine] came in with a melting point of 133 to 136 °C.

For `CCCc1ccc(OCCCN2CCCCC2)cc1` (as salt: oxalate) [Example 113, 1-[3-(4-propylphenoxy)propyl]piperidine], the melting point is 121 to 124 °C.

The compound `CCc1ccc(OCCCN2CCCCC2)cc1` (as salt: oxalate) [Example 114, 1-[3-(4-ethylphenoxy)propyl]piperidine] returned a melting point of 148 to 151 °C.

As for `CC[C@@H]1CC[C@H](C)N(CCCOc2ccc(C#N)cc2)C1` (relative stereo) (as salt: oxalate) [Example 91, 1-[3-(4-cyanophenoxy)propyl]-cis-2-methyl-5-ethylpiperidine], the melting point is 158 to 159 °C.

In the case of `C[C@H]1C[C@H](C)CN(CCCOc2ccc(C#N)cc2)C1` (relative stereo) (as salt: oxalate) [Example 100, 1-[3-(4-cyanophenoxy)propyl]-trans-3,5-dimethylpiperidine], the melting point was 163 to 165 °C.

The compound `C[C@H]1C[C@H](C)CN(CCCOc2ccc(C(=O)C3CC3)cc2)C1` (relative stereo) (as salt: oxalate) [Example 101, 1-[3-(4-cyclopropanecarbonylphenoxy)propyl]-trans-3,5 dimethylpiperidine] returned a melting point of 136 to 138 °C.

Take `C[C@H]1C[C@H](C)CN(CCCCCOc2ccccc2)C1` (stereo in doubt) (as salt: oxalate) [Example 12, 1-(5-phenoxypentyl)-3,5-trans-dimethyl-piperidine]: the melting point was 154 to 155 °C.

`CC(=O)c1ccc(OCCCN2C[C@@H](C)C[C@H](C)C2)cc1` (stereo in doubt) (as salt: oxalate) [Example 67, 1-[3-(4-acetylphenoxy)-propyl]-3,5-trans-dimethyl-piperidine] yielded a melting point of 171 to 172 °C.

The compound `CC1CCCN(CCCCCOc2ccccc2)C1` (centres unmarked) [Example 10, 1-(5-phenoxypentyl)-3-methyl-piperidine] came in with a melting point of 140 to 141 °C.
